In brackets after ≈: the same amount, converted by molar mass.

What all share (format): functional, cell-based
One test deals with A549. Kind of test: Cytotoxicity against human A549 cells by MTT assay. On the technique in general: Formazan colour is commonly taken as a measure of viable cells.
Test [1] can be described thus: Cytotoxicity against human Bel 7402 cells by MTT assay.
A short description of test [2]: Cytotoxicity against human BGC 823 cells by MTT assay.
The subject of a further test is HCT-8. Kind of test: Cytotoxicity against human HCT8 cells by MTT assay.
The test system of a further test is A2780. Briefly: Cytotoxicity against human A2780 cells by MTT assay.

As for `CC1=C2C(=C[C@H]3[C@]4(C)CCC(=O)C(C)(C)[C@H]4CC[C@]34O[C@H]24)OC1=O`, the half-inhibitory concentration (IC50) in the test with A549 was above 10 µg/mL; in test [1], 7.53 µg/mL (≈ 22.9 µM); in test [2], above 10 µg/mL; with HCT-8, above 10 µg/mL; with A2780, 8.22 µg/mL (≈ 25 µM).

As to `O=c1[nH]cc(F)c(=O)[nH]1` [FLUOROURACIL], the IC50 in the test with A549 was 0.18 µg/mL (≈ 1.38 µM); in test [1], 0.54 µg/mL (≈ 4.15 µM); in test [2], 0.7 µg/mL (≈ 5.38 µM); in the test on HCT-8, 0.54 µg/mL (≈ 4.15 µM); in the test with A2780, 0.65 µg/mL (≈ 5 µM).

The term IC50 denotes the concentration that inhibits the measured activity by half. Low readings indicate inhibition by little substance, high ones a need for much substance.
